Test results as given in paper PMC7957705 (Molecules, 2021).
Entries after “also recorded” stand apart in the source; their conditions may differ. Where two headings read alike, the source gives them in different places. Marks after values point to notes of the source that are not given here. Where a SMILES comes first, the peptide text is derived from it. Bridges are numbered along the chain shown (N, C = ends). Triazole bridges read from a SMILES are 1,4-linked. [ ]: non-standard residue; d: D form. The star is where a group is joined. Benzoyl(4-guanidino) = N=C(N)Nc1ccc(C(=O)*)cc1; Aha = [N-]=[N+]=NCC[C@H](N)C(=O)O; β3hV = CC(C)[C@H](N)CC(=O)O; Nle = CCCC[C@H](N)C(=O)O; Pra = C#CC[C@H](N)C(=O)O

Assays:
[1] = type: in vitro ADME; details: for half-life: plasma
Method: Plasmas from 3 species (including commercially available human healthy donors) were adjusted to pH 7.4 if necessary. Incubations were performed at a concentration of 1 µM of the compound at 37 °C (in the presence of a final concentration of DMSO of 2.5% v/v. The incubations were stopped at 0, 15, 30, 60 and 120 min by methanol. Each time point was run in sextuplets. The sampling plates were then centrifuged (2500 rpm, 45 min, 4 °C) and the supernatants pooled. Samples were analyzed for parent compound by LC-MS/MS. The percentage of parent compound remaining at each time point relative to the 0 min sample is then calculated from LC-MS/MS peak area ratios. Then, the stability in plasma was evaluated by incubating human, rat or mouse plasma with the compound(s) as follows: the product (0.1 µM in TRIS buffer pH 7.4 0.1% BSA) was incubated with the plasma at 37 °C. The disappearance of the product was measured at 15, 45, 120, 240 and 300 min by mass spectrometry. Incubations were carried out in a robot Star (Hamilton France, Villebon-sur-Yvette, France). At each sampling time, 50 µL of the reaction medium was removed and diluted with 100 µL of acetonitrile. After centrifugation (20 min at + 4 °C, 4000 rpm), 75 µL of the supernatants was transferred into a 384 well injection plate. Ten microliters were injected onto UPLC coupled with a XEVO TQS mass spectrometer system (Waters, Milford, MA, USA). The unchanged product is quantified using a reference sample (0.1 µM) prepared during the incubation process. A second reference sample at 0.01 µM is prepared in the same conditions to verify the linearity of the detection method. The peak height (or area) is measured to calculate the half-life of the compound.

[2] = system: high-fat diet-induced obese C57BL/6 mice; experiment: Diet-induced obesity model: blood biochemistry; type: in vivo, mouse; details: for Insulin / Total Cholesterol / Triglyceride: High-Fat Diet mice
Method: Male C57BL/6 mice at 4 weeks of age were provided by BioLasco Taiwan (under Charles River Laboratories Licensee). All animals were maintained in an environment with well-controlled temperature (20–24 °C) and humidity (30–70%) with 12 h light/dark cycles. Free access to standard lab diet (MFG (Oriental Yeast Co., Ltd., Japan)) and autoclaved tap water was granted. All aspects of this work including housing, experimentation, and animal disposal were performed in general accordance with the “Guide for the Care and Use of Laboratory Animals: Eighth Edition” (National Academies Press, Washington, D.C., 2011) in our laboratory animal facility accredited by the […]. In addition, the protocol for animal care and use was reviewed and approved by the Institutional Animal Care and Use Committee (IACUC) at Pharmacology Discovery Services Taiwan, Ltd.
ALT (Alanine aminotransferase) and AST (Aspartate aminotransferase) assay kit (Denka Seiken, Japan), Cholesterol assay kit (Denka, Japan), Creatinine assay kit (Denka Seiken, Japan), Mouse insulin ELISA kit (Crystal chem, Elk Grove Village, IL, USA), Na^+/K^+ assay kit (Toshiba, Japan), Triglyceride assay kit (Sentinel Diagnostics, Milano, Italy) and Water for injection (Tai-Yu, Taiwan).
The protocol was performed for all groups and all animals. Male C57BL/6 mice were fed a high-fat diet (HFD) (60% of calories) or a standard chow diet (STD) from 4 weeks of age. Thirty (30) mice were fed the HFD and 10 mice were fed the STD (for 8 weeks before treatment) for a total of 20 weeks. The mice assigned to the STD diet were maintained on this diet throughout the study as a reference group of lean control mice. From Week 9, HFD-fed mice were grouped by body weight before dosing. Body weight was recorded three times weekly from Week 9. Food/water intake was recorded twice weekly from Week 9. Blood chemistry analyzes were performed in Weeks 8 (before dosing, Day 56), 16 (Day 113) and 20 (Day 141), including serum insulin, total cholesterol (T-CHO), triglyceride (TG), alanine aminotransferase (ALT), aspartate aminotransferase (AST), uric acid (UA), creatinine, potassium (K^+) and sodium (Na^+). At the termination in Week 20 (Day 141), the adipose tissue weight, including epididymal, mesenteric, inguinal, retroperitoneal, and brown fat, was measured after the animals were sacrificed. Two-way ANOVA followed by Bonferroni’s tests were applied to ascertain the difference between vehicle control and treated animals. Significance was set at p < 0.05 level. The following parameters were measured: (1) body weight three times weekly; (2) food/water intake twice weekly; (3) blood chemistry in Weeks 8 (before dosing), 16 and 20 including glucose, insulin, serum lipids (triglycerides (TG), total cholesterol (TC), AST, alanine aminotransferase (ALT), uric acid, creatinine, potassium and sodium through 16-h fasting animals; and finally, (4) total body fat (including visceral and subcutaneous fat) in Week 20.

[3] = 5 and 10 mg/kg i.p. once daily for 12 weeks, day 113 and day 141
[4] = 5 or 10 mg/kg i.p. daily, HFD mice
[5] = 5 or 10 mg/kg i.p. daily, Day 113 and Day 141
[6] = 5 mg/kg QD x 12 weeks IP, Day 56 (before dosing), mean
[7] = 5 mg/kg QD x 12 weeks IP, Day 113, mean
[8] = 5 mg/kg QD x 12 weeks IP, Day 141, mean
[9] = 10 mg/kg QD x 12 weeks IP, Day 56 (before dosing), mean
[10] = 10 mg/kg QD x 12 weeks IP, Day 113, mean
[11] = 10 mg/kg QD x 12 weeks IP, Day 141, mean

With `CCCC[C@@H]1NC(=O)[C@@H](NC(=O)c2ccc(NC(=N)N)cc2)CCn2cc(nn2)C[C@@H](C(=O)N[C@@H](Cc2c[nH]c3ccccc23)C(=O)O)NC(=O)[C@@H]2CCCN2C(=O)[C@H](CCCNC(=N)N)NC(=O)C[C@H](C(C)C)NC(=O)[C@H](CCCNC(=N)N)NC(=O)[C@H](CC(C)C)NC1=O` [GPS18169] ({Benzoyl(4-guanidino)}-[Aha][Nle]LR[β3hV]RP[Pra]W-OH; triazole 1-8) the half-life ([1]; human) was ≥ 5 h, the “initial dose remaining after incubation in mice plasma” value ([1]; mouse) was “about 50%” and the half-life ([1]; mouse) was 2.92 ± 0.283 h. For the same molecule, the half-life ([1]; rat) was ≥ 5 h, the insulin level ([2]; 10 mg/kg daily, 12 weeks, vs vehicle treated/normal diet) was “back to the control” and the “serum alanine aminotransferase (ALT) level vs vehicle” value [2, 3] was “not associated with any significant effect”. The “serum aspartate aminotransferase (AST) level vs vehicle” value [2, 3] was “not associated with any significant effect”, the total cholesterol level [2, 4] was “remained high, despite a modest reduction; also recorded: improvement” and the triglycerides level [2, 4] was “remained high, despite a modest reduction; also recorded: improvement”. The insulin level ([2]; 5 or 10 mg/kg i.p. daily, after 12 weeks of treatment, HFD mice) was “normalization; also recorded: significant reduction; also recorded: improvement; also recorded: return to almost normal”, the “serum creatinine level vs vehicle” value [2, 5] was “did not lead to any significant effect” and the “serum potassium (K+) level vs vehicle” value [2, 5] was “did not lead to any significant effect”. The “serum sodium (Na+) level vs vehicle” value [2, 5] was “did not lead to any significant effect”, the “serum uric acid (UA) level vs vehicle” value ([2]; 5 or 10 mg/kg i.p. daily, Week 16 (Day 113) and Week 20 (Day 141)) was “did not lead to any significant effect” and the Insulin [2, 6] was 909.5 pg/mL. For the same molecule, the “Total Cholesterol” value [2, 6] was 158.3 mg/dL, the Triglyceride [2, 6] was 121.8 mg/dL and the Insulin [2, 7] was 1983.8 pg/mL. For the same molecule, the “Total Cholesterol” value [2, 7] was 143.1 mg/dL, the Triglyceride [2, 7] was 115.3 mg/dL and the “Total Cholesterol” value [2, 8] was 135.6 mg/dL. The Triglyceride [2, 8] was 108.9 mg/dL, the Insulin [2, 9] was 1068.0 pg/mL and the “Total Cholesterol” value [2, 9] was 155.6 mg/dL. The Triglyceride [2, 9] was 122.9 mg/dL, the Insulin [2, 10] was 1549.7 pg/mL and the “Total Cholesterol” value [2, 10] was 135.7 mg/dL. For the same molecule, the Triglyceride [2, 10] was 108.3 mg/dL, the Insulin [2, 11] was 957.0 * pg/mL and the “Total Cholesterol” value [2, 11] was 132.1 mg/dL. It also gave a Triglyceride [2, 11] of 102.1 mg/dL.
